Patent US20140350119A1, “OPHTHALMIC COMPOSITION COMPRISING GERANYLGERANYLACETONE” (ROHTO PHARMACEUTICAL CO., LTD., priority 2012, published 2014)

Legend:
[1] = tested on: rat models with glaucoma induced by NMDA; assay: Protective effect for retinal ganglion cells against nerve damage by NMDA (thickness of inner plexiform layer); assay type: in vivo, Sprague-Dawley (SD) rats; details: once per day
Source text: In recent years the glutamate analogue NMDA (N-methyl-D-aspartate) has been widely reported to be one of causative agents of neurodegenerative diseases including Alzheimer's disease. In the ophthalmic field, NMDA is considered to be involved in optic nerve damage in glaucoma (Brain Research Bulletin, 81 (2010) 349-358). Accordingly, in this experiment rat models with glaucoma induced by NMDA were used to evaluate the neuroprotective effect of GGA.
To Sprague-Dawley (SD) rats, the all-trans form, the 5Z-mono-cis form and teprenone were separately pre-administered by oral administration (Test Example 1), intravitreal administration (Test Example 2) or ocular instillation administration (Test Example 3) and 5 μL of NMDA was administered into the vitreous body to induce nerve damage. For Test Example 2, a marketed therapeutic eye drop for glaucoma, AIPHAGAN (trade name), was intravitreally administered as a positive control once a day for five days. For each of Test Examples, a base not containing GGA or AIPHAGAN was administered as a control in the same manner as described above.
The dosage and regimen of Test Examples 1 to 3 are shown in Table 1 and the constitution of the base used in each tests are shown in Table 2.
Three days after administration of NMDA, the eyeballs were harvested, fixed with half Karnovsky's fixative for 24 hours, embedded in paraffin, thin sectioned and stained with hematoxylin-eosin (HE) to prepare histopathological sections. The histological sections were observed under an optical microscope and the thickness (μm) of the inner plexiform layer (IPL) of the retina was measured. From the thickness of the inner plexiform layer (IPL) of the retina, the neuroprotective effects of the test preparations were evaluated.

[2] = tested on: PC12; assay: Protective effect against ischemic cell death induced by hypoxia and low glucose (cell viability, Cell Titer-Glo); assay type: cell-based, rat; details: 30 μM, 2 h, then low glucose, zero percent O2, 8 h, FIG. 1, Tukey-Kramer test
Source text: The progress of visual impairment in glaucoma is associated with retinal ganglion cell (RGC) death due to blood flow failure occurring near the optic nerve (Folia Pharmacol. Jpn. 128, 255-258 (2006)). With the use of PC12, which is a typical neural cell line established from rat adrenal […] pheochromocytoma and used also as a model cell for the functional evaluation of RGC (J Neurosci Res. 2000 May 15; 60(4): 495-503.), the cytoprotective effect of GGA against ischemic cell death induced by hypoxia and low glucose was evaluated.
Test samples were prepared as follows. The test substances were four types of GGAs that contain the all-trans form and the 5Z-mono-cis form at a weight ratio of 10:0, 8:2, 6:4, and 0:10, respectively. […]
After 8 hours of incubation, 100 μL of an equivalent mixture of a cell viability detection reagent Cell Titer-Glo (Promega) and PBS was added to each well and the luminescence produced by the reaction with ATP in living cells was measured with a luminometer (GloMax; Promega). The cell viability was calculated from the measured luminescence by the following formula and the cytoprotective effect of GGA against […] was examined.
Cell viability (%)=100×[(luminescence of base- or GGA-treated group)/(luminescence of non-treated group)]

[3] = tested on: glaucoma rat model; details: intraperitoneal administration; Non Patent Literature 2; cited from earlier work
[4] = tested on: mouse with retinal injury induced by ischemia; details: oral administration; Non Patent Literature 4; cited from earlier work
[5] = tested on: retinal detachment-induced animal; details: intraperitoneal administration; Non Patent Literature 1; cited from earlier work
[6] = tested on: mouse with visual cell damage induced by light irradiation; details: oral administration; Non Patent Literature 3; cited from earlier work
[7] = tested on: multiple sclerosis mouse model; details: oral administration; Non Patent Literature 5; cited from earlier work
[8] = Test Example 1: oral, 800 mg/kg, 2 days, NMDA 4 mM, FIG. 6

Row | Compound | Neuroprotective effect against nerve damage by NMDA compared with the base (IPL thickness) [1, 8] | Neuroprotective effect against nerve damage by NMDA compared with the base (IPL thickness) ([1]; Test Example 2: intravitreal, 0.05% w/v, 5 days, NMDA 40 mM, FIG. 7) | Cytoprotective effect compared with GGA of weight ratio 6:4 [2] | Expression of heat shock protein 72 [3] | Optic nerve damage [3] | Retinal ganglion cell death [3] | Number of surviving retinal neurons [4] | Apoptosis of visual cells [5] | Expression of heat shock protein 70 [5] | Thioredoxin and heat shock protein 72 in the retinal pigment epithelium [6] | Cell loss in the ganglion [7] | Number of degenerating axons in the optic nerve [7] | Visual function [7]
1 | CC(=O)CC/C=C(/C)CC/C=C(\C)CC/C=C(\C)CCC=C(C)C [5Z-mono-cis form, (5Z,9E,13E)-6,10,14,18-tetramethyl-5,9,13,17-nonadecatetrae n-2-one] | significant neuroprotective effects | significant neuroprotective effects | significantly higher cytoprotective effects | – | – | – | – | – | – | – | – | – | –
2 | teprenone | did not show a significant neuroprotective effect | – | – | induced the expression of heat shock protein 72 | ameliorated optic nerve damage | reduced retinal ganglion cell death | significantly increased | reduced the apoptosis of visual cells significantly | induced the expression of heat shock protein 70 | induced thioredoxin and heat shock protein 72 | prevented cell loss | reduced the number of degenerating axons | improved the visual function
